Measured values reported in US11534457B2, “Use of dextran sulfate” (priority 2017, dated 2022).

B1: HGF: Hepatocyte growth factor (HGF) recombinant mouse (R&D Systems) (protein, UniProt Q08048 33-495; Q08048 496-728, looked up)
Hepatocyte growth factor …: QKKRRNTLHEFKKSAKTTLTKEDPLLKIKTKKVNSADECANRCIRNRGFTFTCKAFVFDKSRKRCYWYPFNSMSSGVKKGFGHEFDLYENKDYIRNCIIGKGGSYKGTVSITKSGIKCQPWNSMIPHEHSFLPSSYRGKDLQENYCRNPRGEEGGPWCFTSNPEVRYEVCDIPQCSEVECMTCNGESYRGPMDHTESGKTCQRWDQQTPHRHKFLPERYPDKGFDDNYCRNPDGKPRPWCYTLDPDTPWEYCAIKTCAHSAVNETDVPMETTECIQGQGEGYRGTSNTIWNGIPCQRWDSQYPHKHDITPENFKCKDLRENYCRNPDGAESPWCFTTDPNIRVGYCSQIPKCDVSSGQDCYRGNGKNYMGNLSKTRSGLTCSMWDKNMEDLHRHIFWEPDASKLNKNYCRNPDDDAHGPWCYTGNPLIPWDYCPISRCEGDTTPTIVNLDHPVISCAKTKQLR
Hepatocyte growth factor beta …: VVNGIPTQTTVGWMVSLKYRNKHICGGSLIKESWVLTARQCFPARNKDLKDYEAWLGIHDVHERGEEKRKQILNISQLVYGPEGSDLVLLKLARPAILDNFVSTIDLPSYGCTIPEKTTCSIYGWGYTGLINADGLLRVAHLYIMGNEKCSQHHQGKVTLNESELCAGAEKIGSGPCEGDYGGPLICEQHKMRMVLGVIVPGRGCAIPNRPGIFVRVAYYAKWIHKVILTYKL

Experiments:
[1] = biological target: T1, protein-protein interaction between oligomeric amyloid-β and PrP^c (Homo sapiens, UniProt P04156); type: binding
[2] = biological target: T1, protein-protein interaction between oligomeric amyloid-β and PrP^c; conditions: cited from earlier work
[3] = system: Experimental Autoimmune Encephalomyelitis (EAE); assay: Mouse Experimental Autoimmune Encephalomyelitis (EAE) model, clinical score; type: in vivo, C57B1.6 mice; conditions: 100 ng/dose i.v. every other day from day 18

| Molecule | competition for the protein-protein interaction (in words) [1] | effective concentrations to compete with the protein-protein interaction (Aimi et al.) [2] | Competable binding (%) [1] | Hill coefficient [1] | IC50 [1] | mean EAE score vs vehicle [3] |
| --- | --- | --- | --- | --- | --- | --- |
| dextran | failed to compete appreciably | – | – | – | – | – |
| dextran sulphate sodium salt [DSSS] | competed for the protein-protein interaction between oligomeric amyloid-β and PrP^c in a concentration dependent manner | in the low μg/ml range | 101 ± 2% | 1.51 ± 0.06 | 0.62 ± 0.07 µg/mL | – |
| B1 | – | – | – | – | – | did not result in any significant difference |
